Experimental data: paper PMC7589136, “The Human Digestive Tract Is Capable of Degrading Gluten from Birth” (International Journal of Molecular Sciences, 2020)
Like-named read-outs stand apart in the source and are kept apart here. Ends that are not written are not given here.

Experiments:
[1] = Peptidase activity of desalted fecal protein extracts against 33-mer, 19-mer and 13-mer gliadin peptides (HPLC); assay type: in vitro ADME, human; conditions: for Degradation capacity of new-born fecal samples against peptide / Degradation of peptide by feces samples / Degradation of peptide by fecal protein extract / Degradation of peptide by meconium protein extract: 60 μM peptide, 37 °C; for Degradation capacity of new-born fecal samples against peptide: in some cases intermediate peptides observed; for Degradation of peptide by feces samples: up to 12 month-olds; for Degradation of peptide by fecal protein extract / Degradation of peptide by meconium protein extract: 0.8 mg/mL extract; for Degradation of peptide by fecal protein extract: HPLC UV 215 nm; for Degradation of peptide by meconium protein extract: reverse-phase HPLC, UV 215 nm
Experimental: Step 1: Sample preparation: Fecal samples were homogenized by mechanical stirring (90 min) in 10 mM Tris-HCl, pH 7.5 (1:5 w/v) and centrifuged (3100× g, 30 min). The supernatant was re-centrifuged at 30,000× g for 20 min.
Step 2: Ammonium sulphate fractionation: Each supernatant obtained from step 1 was precipitated with ammonium sulphate. The 80% ammonium sulphate precipitate (containing glutenase activity) was collected by centrifugation at 30,000× g, 20 min. The pellet was dissolved in 10 mM Tris-HCl (pH 7.5) and ammonium sulphate was eliminated by passing through a Sephadex G-25 (PD-10) column (GE Healthcare Live Sources, San Diego, CA USA) equilibrated with Tris-ClH (pH 5) in accordance with manufacturer’s indications.
Peptides used in this paper were: 33-mer ([…]), 19-mer (LGQQQPFPPQQPYPQPQPF), and 13-mer (LGQQQPFPPQQPY) synthetized by Bionova Científica, S.L. (Madrid, Spain) with purification grade around 96%.
We assayed 33-mer, 19-mer, and 13-mer hydrolysis as described previously, with modifications. Briefly, reaction mixtures containing 0.8 mg/mL of desalted protein extract (see step 2.2), 33-, 19-, or 13-mer peptide (60 μM) were incubated at 37 °C for 60 min and then stopped by boiling at 100 °C. 10-µL of each filtered aliquot was subjected to reverse-phase HPLC. The elution phases consisted of (A) MilliQ H2O containing 0.1% trifluoroacetic acid (TFA) (v/v) and (B) acetonitrile and 0.1% TFA (v/v). The eluate was monitored by measuring UV absorbance at 215 nm. Negative controls included runs with proteins denatured by boiling for 15 min, or 33-, 19-, and 13-mer peptides assayed without protein extract.

[2] = tested on: elastase 3B, elastase 2A, and carboxypeptidase A1; conditions: cited from earlier work
[3] = elastase 3B, elastase 2A, and carboxypeptidase A1 from human feces

Row | Sequence | Degradation capacity of new-born fecal samples against peptide ([1]; 60 min, HPLC) | Degradation of peptide by feces samples ([1]; 60 min, HPLC) | Degradation of peptide by fecal protein extract ([1]; volunteers >300 months old (the only group that did not degrade it completely), 60 min) | Hydrolysis of peptide by gastrointestinal proteases [2, 3] | Hydrolysis of peptide by gastrointestinal proteases [2] | Hydrolytic activity of meconium samples against peptide ([1]; all 21 meconium samples, HPLC) | Degradation of peptide by meconium protein extract ([1]; desalted meconium protein extract of newborn volunteer 15, 60 min, intermediate peptides generated) | Degradation of peptide by meconium protein extract ([1]; desalted meconium protein extracts of newborn volunteers 3 and 9, 60 min) | Degradation of peptide by fecal protein extract ([1]; volunteers 0–2 months old, 60 min) | Degradation of peptide by fecal protein extract ([1]; volunteers 2–6 months old, 60 min) | Degradation of peptide by fecal protein extract ([1]; volunteers over 48 months old, 1 h)
1 | LGQQQPFPPQQPY [13-mer] | total degradation | able to degrade | not able to complete degrade | fully |  |  |  |  |  |  | 
2 | LGQQQPFPPQQPYPQPQPF [19-mer] |  |  |  |  | fully |  |  |  |  |  | 
3 | LQLQPFPQPQLPYPQPQLPYPQPQLPYPQPQPF [33-mer] | total degradation | able to degrade |  | partially |  | showed hydrolytic activity | only partially degraded | completely degrade | completely degrade | completely degrade | unable to completely degrade
